# Results reported in ChEMBL document CHEMBL1140576, “Discovery of novel non-cytotoxic salicylhydrazide containing HIV-1 integrase inhibitors” (Bioorg Med Chem Lett, 2007).
# The source made the active and inactive calls. The rule behind the calls is not given here.
# Tests used:
# [1] = target: T1, Human immunodeficiency virus type 1 integrase (Human immunodeficiency virus 1, UniProt Q7ZJM1); assay: Inhibition of HIV1 integrase 3'-end processing activity
# [2] = target: T1, Human immunodeficiency virus type 1 integrase; assay: Inhibition of HIV1 integrase strand transfer activity
# [3] = Cytotoxicity against human MDA-MB-435 cells; assay type: cell-based
# [4] = Cytotoxicity against human HCT116 cells; assay type: cell-based, HCT-116
# [5] = system: MDA-MB-435; assay: Cytotoxicity against human MDA-MB-435 cells at 20 uM; assay type: cell-based; conditions: mda-mb-435, 20 µM
# [6] = system: HCT-116; assay: Cytotoxicity against human HCT116 cells at 20 uM; assay type: cell-based; conditions: hct-116, 20 µM
# [7] = target: Human immunodeficiency virus type 1 integrase (Human immunodeficiency virus 1) (UniProt Q7ZJM1); assay: Inhibition of HIV1 integrase 3'-end processing activity at 100 uM
# Chain of Human immunodeficiency virus type 1 integrase (Human immunodeficiency virus 1) (Q7ZJM1 as listed by the source): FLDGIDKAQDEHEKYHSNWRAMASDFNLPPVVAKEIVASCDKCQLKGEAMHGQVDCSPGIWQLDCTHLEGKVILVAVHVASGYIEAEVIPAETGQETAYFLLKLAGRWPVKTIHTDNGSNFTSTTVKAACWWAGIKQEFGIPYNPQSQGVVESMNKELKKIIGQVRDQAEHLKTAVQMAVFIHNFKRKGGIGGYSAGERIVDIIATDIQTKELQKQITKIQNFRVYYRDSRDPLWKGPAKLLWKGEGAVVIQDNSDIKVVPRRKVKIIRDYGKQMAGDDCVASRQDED
# [8] = target: Human immunodeficiency virus type 1 integrase (Human immunodeficiency virus 1) (UniProt Q7ZJM1); assay: Inhibition of HIV1 integrase strand transfer activity at 100 uM
# T1 sequence (Q7ZJM1 whole entry): as the sequence (Q7ZJM1 as listed by the source) above
Compound,IC50 [1],IC50 [2],CC50 [3],CC50 [4],Activity [5],Activity [6],Activity [7],Activity [8]
Cc1ccc(-n2c(SCC(=O)NNC(=O)c3ccccc3O)nnc2-c2ccccc2)cc1,23 µM,12 µM,20 µM,15 µM,,,,
COc1ccc(-c2nnc(SCC(=O)NNC(=O)c3ccccc3O)n2-c2ccccc2)cc1OC,22 µM,21 µM,> 20 µM,> 20 µM,13%,24%,,
O=C(CSc1nnc(-c2ccncc2)n1-c1ccccc1)N/N=C/c1ccccc1O,> 100 µM,> 100 µM,> 20 µM,> 20 µM,44%,40%,inactive,inactive
O=C(CSc1nnc(-c2ccccc2O)n1Cc1ccccc1)NNC(=O)c1ccccc1O,15 µM,9 µM,> 20 µM,> 20 µM,15%,8%,,
COc1ccccc1-n1c(SCC(=O)NNC(=O)c2ccccc2O)nnc1-c1ccccc1O,8 µM,6 µM,> 20 µM,20 µM,40%,,,
COc1ccc(-n2c(Cc3ccccc3)nnc2SCC(=O)NNC(=O)c2ccccc2O)cc1,18 µM,17 µM,> 20 µM,> 20 µM,10%,0%,,
O=C(CSc1nnc(Cc2ccccc2)n1C1CCCCC1)NNC(=O)c1ccccc1O,21 µM,17 µM,> 20 µM,> 20 µM,5%,11%,,
O=C(CSc1nnc(-c2ccncc2)n1-c1ccc(F)cc1)NNC(=O)c1ccccc1O,49 µM,31 µM,> 20 µM,> 20 µM,14%,22%,,
Cc1cc(C)nc(SCc2nnc(SCC(=O)NNC(=O)c3ccccc3O)n2-c2ccccc2)n1,51 µM,27 µM,> 20 µM,> 20 µM,3%,0%,,
O=C(CSc1nnc(Cc2ccccc2)n1-c1cccc(Cl)c1)NNC(=O)c1ccccc1O,9 µM,8 µM,> 20 µM,> 20 µM,5%,11%,,
O=C(CSc1nnc(-c2ccccc2)n1Cc1ccccc1)NNC(=O)c1ccccc1O,21 µM,9 µM,> 20 µM,> 20 µM,22%,34%,,
O=C(CSc1nnnn1-c1ccccc1)NNC(=O)c1ccc(O)cc1O,68 µM,61 µM,> 20 µM,> 20 µM,3%,15%,,
Cc1ccc(-n2c(SCC(=O)NNC(=O)c3ccccc3O)nnc2-c2ccccc2O)cc1,5 µM,3 µM,> 20 µM,> 20 µM,12%,26%,,
O=C(CSc1nnc(-c2ccc(Cl)cc2)n1-c1ccccc1)N/N=C/c1ccccc1C(=O)O,> 100 µM,> 100 µM,> 20 µM,> 20 µM,8%,0%,inactive,inactive
O=C(CSc1nnc(-c2ccc(Cl)cc2)n1-c1ccccc1)NNC(=O)c1ccccc1O,11 µM,5 µM,> 20 µM,> 20 µM,30%,36%,,
Cc1cc(C)nc(SCc2nnc(SCC(=O)NNC(=O)c3ccccc3O)n2C)n1,> 100 µM,> 100 µM,> 20 µM,> 20 µM,16%,21%,,
Cn1c(SCC(=O)NNC(=O)c2ccccc2O)nnc1-c1ccccc1,64 µM,58 µM,> 20 µM,> 20 µM,32%,39%,,
